Data from US8569267B2, “Tetracyclic tetrahydrofuran derivatives containing cyclic amine side chain” (Janssen Pharmaceutica, NV, priority 2005, dated 2013).
Where two headings read alike, the source gives them in different places.

What was measured:
[1] = target: T1, human cloned 5-HT2A receptor, expressed in L929 cells (Homo sapiens, UniProt P28223); assay: In vitro binding affinity for 5-HT2A receptor ([125I]R91150 radioligand binding)
T1 construct: expressed in transfected cells; host or cells: L929 cells
T1 sequence (P28223 whole entry): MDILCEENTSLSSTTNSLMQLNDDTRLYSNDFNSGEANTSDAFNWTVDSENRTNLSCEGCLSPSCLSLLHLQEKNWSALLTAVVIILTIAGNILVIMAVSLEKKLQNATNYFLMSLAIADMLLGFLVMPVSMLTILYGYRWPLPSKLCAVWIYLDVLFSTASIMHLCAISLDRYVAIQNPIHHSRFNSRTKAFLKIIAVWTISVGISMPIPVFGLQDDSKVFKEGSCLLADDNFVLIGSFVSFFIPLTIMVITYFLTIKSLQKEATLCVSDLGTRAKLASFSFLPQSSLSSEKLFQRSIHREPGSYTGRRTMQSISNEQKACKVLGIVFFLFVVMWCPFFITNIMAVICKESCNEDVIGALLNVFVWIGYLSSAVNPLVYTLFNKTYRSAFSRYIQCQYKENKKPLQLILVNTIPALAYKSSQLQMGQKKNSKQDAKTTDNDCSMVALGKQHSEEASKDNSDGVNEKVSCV
Method in brief: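 Competition radioligand binding to human cloned 5-HT2A receptor expressed in L929 cells, using [125I]R91150 with test compound at various concentrations. At equilibrium, receptor-bound radioactivity was separated from free and counted. Affinity reflects inhibition of radioligand binding.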

[2] = target: T2, human cloned 5-HT2C receptor, expressed in CHO cells (Homo sapiens, UniProt P28335); assay: In vitro binding affinity for 5-HT2C receptor ([3H]mesulergine radioligand binding); details: human cloned 5-HT2C receptor; for IC50: read-out: 5-HT2C pIC50 (converted)
T2 construct: expressed in transfected cells; host or cells: CHO cells
T2 sequence (P28335 33-458): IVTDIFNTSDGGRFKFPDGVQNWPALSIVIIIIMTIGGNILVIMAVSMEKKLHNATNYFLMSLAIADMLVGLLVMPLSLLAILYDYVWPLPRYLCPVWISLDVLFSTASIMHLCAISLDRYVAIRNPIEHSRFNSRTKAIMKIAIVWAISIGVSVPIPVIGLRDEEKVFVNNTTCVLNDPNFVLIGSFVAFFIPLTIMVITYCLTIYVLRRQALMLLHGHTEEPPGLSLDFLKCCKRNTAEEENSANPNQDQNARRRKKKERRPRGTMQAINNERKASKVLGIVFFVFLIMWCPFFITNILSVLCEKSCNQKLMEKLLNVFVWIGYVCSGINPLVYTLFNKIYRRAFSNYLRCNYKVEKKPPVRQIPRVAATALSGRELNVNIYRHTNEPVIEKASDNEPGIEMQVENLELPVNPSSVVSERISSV
Method in brief: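 Receptor-bound radioligand counted after separation from unbound label once equilibrium is reached. Test compound added across a concentration range to tissue preparation plus radioligand; inhibition of binding reflects affinity and concentration.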

[3] = target: T3, human Dopamine D2L receptor (Homo sapiens, UniProt P14416); assay: In vitro binding affinity for human D2L receptor ([3H]Spiperone binding); details: human D2L receptor-transfected CHO cell membranes; for IC50: read-out: D2L pIC50 (converted)
T3 construct: expressed in transfected cells; host or cells: CHO cells
T3 sequence (P14416 whole entry): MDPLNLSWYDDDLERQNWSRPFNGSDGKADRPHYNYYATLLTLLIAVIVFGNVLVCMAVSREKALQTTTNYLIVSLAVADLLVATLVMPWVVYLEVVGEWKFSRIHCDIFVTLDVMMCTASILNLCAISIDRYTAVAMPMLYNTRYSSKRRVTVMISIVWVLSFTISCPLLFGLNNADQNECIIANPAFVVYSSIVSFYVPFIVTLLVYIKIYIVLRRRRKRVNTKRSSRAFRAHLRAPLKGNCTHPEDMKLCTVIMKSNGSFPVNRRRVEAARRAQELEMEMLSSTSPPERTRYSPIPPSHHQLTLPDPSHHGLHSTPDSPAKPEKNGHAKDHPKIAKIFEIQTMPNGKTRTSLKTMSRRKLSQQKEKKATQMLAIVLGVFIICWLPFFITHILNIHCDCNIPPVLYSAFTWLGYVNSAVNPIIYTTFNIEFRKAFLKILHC
Method in brief: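 Competition curves were expressed as percent specific binding, measured by scintillation counting after filtration onto GF/B filters and ice-cold Tris washes. Test compounds competed with [3H]Spiperone, added from a 2 nmol/L dilution, for 30 min at 37° C on transfected CHO membranes in pH 7.7 Tris-HCl salt buffer. Butaclamol at 10^−6 mol/l final marked non-specific binding.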

[4] = target: T4, NET (norepinephrine transporter) (Rattus norvegicus, UniProt Q63380); assay: In vitro determination of NET reuptake inhibition ([3H]Nixosetine binding, rat brain cortex); details: rat brain cortex; for IC50: read-out: NET pIC50 (converted)
T4 construct: Cortex from rat brain was collected and homogenised; from tissue; host or cells: rat brain cortex
T4 sequence (Q63380 1-617): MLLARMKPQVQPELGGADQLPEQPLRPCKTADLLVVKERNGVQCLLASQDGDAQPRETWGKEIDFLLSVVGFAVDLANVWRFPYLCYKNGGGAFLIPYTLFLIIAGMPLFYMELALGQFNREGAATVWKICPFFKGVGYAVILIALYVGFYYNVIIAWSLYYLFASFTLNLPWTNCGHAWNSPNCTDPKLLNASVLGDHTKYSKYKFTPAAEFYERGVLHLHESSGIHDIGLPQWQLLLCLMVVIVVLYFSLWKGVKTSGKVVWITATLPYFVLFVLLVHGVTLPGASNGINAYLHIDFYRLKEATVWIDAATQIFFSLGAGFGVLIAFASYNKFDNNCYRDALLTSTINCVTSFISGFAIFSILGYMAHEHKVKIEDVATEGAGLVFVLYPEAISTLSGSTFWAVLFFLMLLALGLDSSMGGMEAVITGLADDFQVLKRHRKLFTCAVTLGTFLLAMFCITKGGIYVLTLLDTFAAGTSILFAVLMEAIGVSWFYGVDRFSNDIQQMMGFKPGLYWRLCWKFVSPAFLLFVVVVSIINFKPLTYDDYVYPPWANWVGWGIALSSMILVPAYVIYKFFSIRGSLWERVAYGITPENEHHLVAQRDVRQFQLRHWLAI
Method in brief: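 Competition curves and percentage specific binding came from scintillation counting of filter-trapped radioactivity. The membranes were rat cortical homogenate in pH 7.4 Tris buffer with 120 mM NaCl and 5 mM KCl. Test compounds competed with [3H]nisoxetine for binding.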

[5] = human cloned 5-HT2A receptor in L929 cells, [125I]R91150, read-out: 5-HT2A pIC50 (converted)
[6] = human cloned 5-HT2A receptor in L929 cells, [125I]R91150

SMILES | IC50 [1, 5] | IC50 [2] | IC50 [3] | IC50 [4] | 5-HT2A pIC50 [1, 6] | 5-HT2C pIC50 [2] | D2L pIC50 [3] | NET pIC50 [4] | IC50 [1]
N#CCCC1CCN(CC2CC3c4ccccc4Cc4ccc(F)cc4C3O2)CC1 (stereo not drawn) [Compound 170] | 1.82 nM | 2.63 nM | 1.51 nM | 4270 nM | – | – | – | – | –
Fc1ccc2c(c1)C1OC(CN3CCN(Cc4cccc5ccccc45)CC3)CC1c1ccccc1C2 (stereo not drawn) [Compound 75] | 17.4 nM | 97.7 nM | 63.1 nM | 1620 nM | – | – | – | – | –
O=C(Nc1ccccc1)OCC1CCN(CC2CC3c4ccccc4Cc4ccc(F)cc4C3O2)C1 (mixture of isomers) [Compound 22] | 3.09 nM | 3.72 nM | 5.01 nM | 2510 nM | – | – | – | – | –
CCOC(=O)CNC(=S)N1CCN(CC2CC3c4ccccc4Cc4ccc(F)cc4C3O2)CC1 (stereo not drawn) [Compound 110] | 6.17 nM | 47.9 nM | 36.3 nM | 5750 nM | – | – | – | – | –
O=C(C1CCN(CC2CC3c4ccccc4Cc4ccc(F)cc4C3O2)CC1)N1CCN(c2cccc(Cl)c2)CC1 (stereo not drawn) [Compound 202] | 3.47 nM | 8.13 nM | 24 nM | 1620 nM | – | – | – | – | –
CCNC(=O)N1CCN(C[C@H]2C[C@@H]3c4ccccc4Cc4ccc(F)cc4[C@@H]3O2)CC1 [Compound 86] | 0.832 nM | 3.02 nM | 55 nM | 7080 nM | – | – | – | – | –
Fc1ccc2c(c1)C1OC(CN3CCN(C(=S)NC4CCCCC4)CC3)CC1c1ccccc1C2 (stereo not drawn) [Compound 114] | 6.17 nM | 20.9 nM | 45.7 nM | 1100 nM | – | – | – | – | –
Fc1ccc2c(c1)C1OC(CN3CCN(c4nc5ccccc5o4)CC3)CC1c1ccccc1C2 (stereo not drawn) [Compound 126] | 8.91 nM | 79.4 nM | 214 nM | 9770 nM | – | – | – | – | –
O=C(Nc1ccc(F)cc1)OCC1CCN(CC2CC3c4ccccc4Cc4ccc(F)cc4C3O2)C1 (stereo not drawn) [Compound 23] | 2.95 nM | 3.8 nM | 5.62 nM | 3800 nM | – | – | – | – | –
C=CS(=O)(=O)N1CCN(CC2CC3c4ccccc4Cc4ccc(F)cc4C3O2)CC1 (stereo not drawn) [Compound 104] | 8.32 nM | 28.2 nM | 30.9 nM | > 10000 nM | – | – | – | – | –
OC1CCN(C[C@@H]2C[C@@H]3c4ccccc4Sc4ccc(F)cc4[C@H]3O2)C1 (relative stereo) [Compound 43] | < 10 nM | 1.29 nM | 57.5 nM | 1700 nM | – | – | – | – | –
O=C(O)C(=O)O.OC1CCN(CC2CC3c4ccccc4Oc4ccc(Cl)cc4C3O2)CC1 (stereo not drawn) [Compound 284] | – | – | – | – | 7.98 | 7.38 | 7.14 | <5 | –
CCN(CC)CCN(C)C(=O)C1CCN(CC2CC3c4ccccc4Cc4ccc(F)cc4C3O2)CC1 (stereo not drawn) [Compound 199] | 6.46 nM | 1.2 nM | 35.5 nM | > 10000 nM | – | – | – | – | –
O=C(NC(=S)N1CCN(CC2CC3c4ccccc4Cc4ccc(F)cc4C3O2)CC1)c1ccccc1 (stereo not drawn) [Compound 111] | 3.89 nM | 9.77 nM | 27.5 nM | 3090 nM | – | – | – | – | –
C=CCN(C)C(=O)C1CCN(CC2CC3c4ccccc4Cc4ccc(F)cc4C3O2)CC1 (stereo not drawn) [Compound 177] | < 10 nM | 4.47 nM | 11.7 nM | 9770 nM | – | – | – | – | –
OCCC1CCN(CC2CC3c4ccccc4Cc4ccc(F)cc4C3O2)C1 (mixture of isomers) [Compound 6] | 1.45 nM | 1.7 nM | 4.07 nM | 501 nM | – | – | – | – | –
CCCCNC(=S)N1CCN(C[C@H]2C[C@@H]3c4ccccc4Cc4ccc(F)cc4[C@@H]3O2)CC1 [Compound 108] | 4.57 nM | 16.2 nM | 29.5 nM | 3240 nM | – | – | – | – | –
Fc1ccc2c(c1)[C@@H]1O[C@@H](CN3CCc4ccccc4C3)C[C@@H]1c1ccccc1C2.O=C(O)C(F)(F)F [Compound 275] | – | – | – | – | 8.52 | 8.66 | 8.03 | 5.49 | –

SMILES | IC50 [1, 5] | IC50 [2] | IC50 [3] | IC50 [4] | 5-HT2A pIC50 [1, 6] | 5-HT2C pIC50 [2] | D2L pIC50 [3] | NET pIC50 [4] | IC50 [1]
CCS(=O)(=O)N1CCN(CC2CC3c4ccccc4Cc4ccc(F)cc4C3O2)CC1 (stereo not drawn) [Compound 103] | 7.76 nM | 50.1 nM | 19.5 nM | > 10000 nM | – | – | – | – | –
CN(C)C(=O)CC1CN(C[C@H]2C[C@@H]3c4ccccc4Cc4ccc(F)cc4[C@@H]3O2)CCO1 (stereo partly drawn) [Compound 136] | 1.58 nM | 3.31 nM | 24.5 nM | 70.8 nM | – | – | – | – | –
CCOC(=O)CNC(=O)NC1CCN(CC2CC3c4ccccc4Cc4ccc(F)cc4C3O2)CC1 (stereo not drawn) [Compound 242] | 1.2 nM | 4.07 nM | 3.98 nM | 2880 nM | – | – | – | – | –
CN(C)C1CCN(CC2CC3c4ccccc4Cc4ccc(F)cc4C3O2)C1 (mixture of isomers) [Compound 9] | 9.12 nM | 9.55 nM | 9.12 nM | 4570 nM | – | – | – | – | –
O=C(O)C(=O)O.OCCN1CCCN(C[C@H]2C[C@@H]3c4ccccc4Cc4ccc(F)cc4[C@@H]3O2)CC1 [Compound 269] | – | – | – | – | 8.25 | 8.14 | 7.83 | 5.15 | –
O=C(NCC(O)CO)C1CCN(CC2CC3c4ccccc4Cc4ccc(F)cc4C3O2)CC1 (stereo not drawn) [Compound 179] | < 10 nM | 3.8 nM | 38 nM | > 10000 nM | – | – | – | – | –
Fc1ccc2c(c1)C1OC(CN3CCC(NC(=S)NCCN4CCOCC4)CC3)CC1c1ccccc1C2 (stereo not drawn) [Compound 253] | 2.09 nM | 10.2 nM | 24.5 nM | 1510 nM | – | – | – | – | –
O=C(NC1CCCCCC1)C1CCN(CC2CC3c4ccccc4Cc4ccc(F)cc4C3O2)CC1 (stereo not drawn) [Compound 193] | 1.41 nM | 2.63 nM | 15.5 nM | 5250 nM | – | – | – | – | –
O=C(C1CCN(CC2CC3c4ccccc4Cc4ccc(F)cc4C3O2)CC1)N1CC=CC1 (stereo not drawn) [Compound 201] | 0.617 nM | 10.5 nM | 41.7 nM | > 10000 nM | – | – | – | – | –
CN1c2ccccc2[C@H]2C[C@@H](CN3CCC(O)C3)O[C@@H]2c2ccccc21 (relative stereo) [Compound 264] | 166 nM | 19.1 nM | 2240 nM | 4170 nM | – | – | – | – | –
COCC1(O)CCN(C[C@H]2C[C@@H]3c4ccccc4Cc4ccc(F)cc4[C@@H]3O2)CC1 [Compound 272] | 1.23 nM | 0.741 nM | 2.14 nM | 724 nM | – | – | – | – | –
O=C(O)C(=O)O.OCC1CCCN(C[C@H]2C[C@@H]3c4ccccc4Cc4ccc(F)cc4[C@@H]3O2)C1 (single isomer, unassigned) [Compound 148] | – | – | – | – | 8.87 | 8.71 | 8.35 | <5 | –
O=C(OC1CCN(CC2CC3c4ccccc4Cc4ccc(F)cc4C3O2)C1)c1ccc(F)cc1F (mixture of isomers) [Compound 17] | 5.75 nM | 4.68 nM | 6.03 nM | 1740 nM | – | – | – | – | –
COCC(=O)N1CCN(CC2CC3c4ccccc4Cc4ccc(F)cc4C3O2)CC1 (stereo not drawn) [Compound 77] | 3.09 nM | 13.2 nM | 33.9 nM | 3630 nM | – | – | – | – | –
O=[N+]([O-])c1ccc(-c2ccc(CN3CCN(CC4CC5c6ccccc6Cc6ccc(F)cc6C5O4)CC3)o2)cc1 (stereo not drawn) [Compound 63] | 27.5 nM | 50.1 nM | 74.1 nM | 562 nM | – | – | – | – | –
COc1cccc(OC2CCN(CC3CC4c5ccccc5Cc5ccc(F)cc5C4O3)C2)c1 (mixture of isomers) [Compound 31] | 9.77 nM | 3.24 nM | 13.5 nM | 4070 nM | – | – | – | – | –
O=C(Cc1ccccc1)OC1CCN(CC2CC3c4ccccc4Cc4ccc(F)cc4C3O2)C1 (mixture of isomers) [Compound 18] | – | 3.63 nM | 10.2 nM | 1780 nM | – | – | – | – | 6.03 nM
N#CCCC1CCCN(CC2CC3c4ccccc4Cc4ccc(F)cc4C3O2)C1 (mixture of isomers) [Compound 169] | 3.16 nM | 2.88 nM | 13.8 nM | 1620 nM | – | – | – | – | –
